The values below come from patent publication US20240252693A1, “FOLATE RECEPTOR-TARGETED RADIOTHERAPEUTIC AGENTS AND THEIR USE” (Novartis AG, priority 2021, published 2024).

“And” between values parts separate entries of the source, which are not always exact repeats. Identical values can stand only once.

In data set [1] the test system is FR-positive M109 tumor. The data set is described as follows: In vivo biodistribution in mice bearing M109 tumors. Conditions: 177Lu chelate. From the text:
Four- to eight-week-old female nu/nu mice or NSG mice (Harlan Sprague-Dawley, Inc.) were maintained on a standard 12-h light-dark cycle and fed ad libitum with Folate deficient purified rodent diet (TestDiet #AIN-93G) for the duration of the experiment. FR-positive M109 or FR-negative HT29 tumor cells were inoculated in the subcutis dorsal medial area of mice. The biodistribution studies were typically performed when tumors were approximately 400-800 mm^3 in volume. Mice were divided into groups of three, and freshly prepared test articles and competitors were injected through the lateral tail vein in a volume of 100 μL/10 g of PBS. Four h to six days post radioactive-agent dose administration, mice were euthanized and organs (blood, heart, lungs, liver, spleen, and kidneys, intestine, stomach, muscle, brain and tumor) were collected, weighed and placed inside counting vials. Each tissue sample was counted for the activities of radioelement using a gamma-counter. Samples of the injectate were used as decay correction standards. Final bar graphs are expressed as % injected dose per gram of tissue or tumor to kidney ratio, or % tumor to (kidneys+liver+spleen) ratio.

Data set [2] relates to KB tumor. The data set is described as follows: In vivo biodistribution in mice bearing KB tumors. To be noted: 225Ac chelate, 30 nmol/kg.
Data set [3] has as its target T1, folate receptor (FR) on KB cells (Homo sapiens, UniProt P15328).
T1 construct: endogenous in cells; host or cells: KB cells
The experiment in a line: Relative affinity assay: displacement of [3H]folic acid from FR-positive KB cells. It is filed as binding. Conditions: inverse molar ratio to displace 50% of 100 nmol/L [3H]FA, 1 h 37 °C, folic acid set to 1. As for the experimental part:
FR-positive KB cells were seeded in 24-well Falcon plates and allowed to form adherent monolayers (>90% confluent) overnight in FDRPMI/10% FCS media. Spent incubation medium was replaced with FFRPMI supplemented with 10% HIFCS and containing 100 nmol/L of [^3H]FA in the absence and presence of increasing concentrations of unlabeled folic acid (FA), Compound 34, Compound 37, or non-targeted control (Table 14). Cells were incubated for 1 h at 37° C. and then rinsed three times with 0.5 mL PBS (phosphate-buffered saline). Five hundred microliters of 1% SDS (sodium dodecyl sulfate) in PBS were added to each well; after 5 min, cell lysates were collected, transferred to individual vials containing 5 mL of scintillation cocktail, and then counted for radioactivity. Cells exposed to only the [^3H]FA in FFRPMI (no competitor) were designated as negative controls, whereas cells exposed to the [^3H]FA plus 1 mmol/L unlabeled FA served as positive controls. Disintegrations per minute (DPM) measured in the latter samples (representing nonspecific binding of label) were subtracted from the DPM values from all samples. Relative affinities were defined as the inverse molar ratio of compound required to displace 50% of [^3H]FA bound to FR on KB cells, and the relative affinity of FA for the FR was set to 1.
A general note: In a radioligand displacement assay an active substance lowers the binding of a labelled ligand.

In data set [4] the test system is FR-positive IGROV-1 tumor. The experiment in a line: In vivo biodistribution in Athymic Nude-Foxn1nu mice bearing IGROV-1 tumors. Conditions: 177Lu chelate, 600 nmol/kg, 24 h post injection, mean ± SD. As for the experimental part: Six week old female Athymic Nude-Foxn1nu mice (Envigo) were maintained on a standard 12-h light-dark cycle and fed ad libitum with folate deficient purified rodent dies (SSniff #E15321-147) for the duration of the experiment. FR-positive IGROV-1 tumor cells were inoculated in the subcutis dorsal medial area of mice. The biodistribution studies were […]. Mice were divided into groups of four, and freshly prepared test articles were injected through the lateral tail vein in a volume of 100 μL/10 g of PBS. Four h to 24 h post radioactive agent dose administration, mice were euthanized and organs (blood, bone, bowel (large and small), brain, heart, kidneys, liver, lungs, salivary glands, skeletal muscle, skin, spleen, stomach and tumor) were collected, weight and placed inside counting vials. Each tissue sample was counted for the activities of radioelement using a gamma-counter. Samples of the injective were used as decay correction standards. Final bar graph is expressed as % injected dose per gram of tissue FIG. 9.

In data set [5] the target is T2, folate receptors on FR-positive KB cells (Homo sapiens, UniProt P15328).
T2 construct: endogenous in cells; host or cells: KB cells
The data set is described as follows: Binding affinity assay: direct binding of 177Lu-labelled compounds to FR-positive KB cells. To be noted: 177Lu-labelled compound, 1 h 37 °C. On the procedure: FR-positive KB cells and FR-negative A549 cells were seeded in 24-well Falcon plates and allowed to form adherent monolayers (>90% confluent) overnight in FFRPMI/HIFCS. Spent incubation medium was replaced with FFRPMI supplemented with 10% HIFCS containing increasing concentrations (0.78 to 100 nmol/L) of [^177Lu]-Compound 34, [^177Lu]-Compound 37, or [^177Lu]-(non-targeted control) in the absence and presence of 10 μM FA. Cells were incubated for 1 h at 37° C. and then rinsed three times with 0.5 mL PBS. Five hundred microliters of 1% NaOH in PBS were added to each well; after 5 min, cell lysates were collected, transferred to individual tubes, and then counted for radioactivity on a gamma counter. Counts per minute (CPM) values were measured in all samples and plotted against concentration of [^177Lu]-Compound 34, [1^77Lu]-Compound 37, or [^177Lu]-(non-targeted control) using GraphPad Prism 8 program. Dissociation constants (Kd) was calculated using a GraphPad's nonlinear regression one site binding method.

Data set [6] can be described thus: Body weight as measure of gross toxicity in the MDA-MB-231 anti-tumor study. In kind it is in vivo. To be noted: 300 nmol/3.7 GBq/kg, female nu nu mice bearing MDA-MB-231 tumors. The source says:
Four- to eight-week-old female nu nu mice or NSG mice (Harlan Sprague-Dawley, Inc.) were maintained on a standard 12-h light-dark cycle and fed ad libitum with folate deficient purified rodent diet (TestDiet #AIN-93G). FR-positive (human breast adenocarcinoma) or IGROV (human ovarian adenocarcinoma) or KB (human cervical adenocarcinoma) tumor cells were inoculated subcutaneously at the right flank of each mouse. […] Growth of each s.c. tumor was followed by measuring the tumor two times per week. Tumors were measured in two perpendicular directions using Vernier calipers, and their volumes were calculated as 0.5×L×W^2, where L=measurement of longest axis in mm and W=measurement of axis perpendicular to L in mm. A stable disease (SD) was defined as volume reduction of <50% and increase of <50% in two weeks. A partial response (PR) was defined as volume regression >50% but with measurable tumor (>2 mm^3) remaining at all times. Complete response (CR) was defined as a disappearance of measurable tumor mass (<2 mm^3) at some point within the study. Cures were defined as CRs without tumor regrowth within the study time frame. As a general measure of gross toxicity, changes in body weights were determined on the same schedule as tumor volume measurements.

Data set [7] concerns MDA-MB-231 tumors. The experiment in a line: In vivo anti-tumor activity in mice bearing MDA-MB-231 tumors. Conditions: 300 nmol/3.7 GBq/kg, female nu nu mice, n=5. On the procedure: Four- to eight-week-old female nu nu mice or NSG mice (Harlan Sprague-Dawley, Inc.) were maintained on a standard 12-h light-dark cycle and fed ad libitum with folate deficient purified rodent diet (TestDiet #AIN-93G). FR-positive (human breast adenocarcinoma) or IGROV (human ovarian adenocarcinoma) or KB (human cervical adenocarcinoma) tumor cells were inoculated subcutaneously at the right flank of each mouse. Mice were dosed with [^177Lu]-Compound 34, [^177Lu]-Compound 37, or [^225Ac]-Compound 5 through the lateral tail vein under sterile conditions in a volume of 100 μL/10 g of phosphate-buffered saline (PBS). Growth of each s.c. tumor was followed by measuring the tumor two times per week. Tumors were measured in two perpendicular directions using Vernier calipers, and their volumes were calculated as 0.5×L×W^2, where L=measurement of longest axis in mm and W=measurement of axis perpendicular to L in mm. A stable disease (SD) was defined as volume reduction of <50% and increase of <50% in two weeks. A partial response (PR) was defined as volume regression >50% but with measurable tumor (>2 mm^3) remaining at all times. Complete response (CR) was defined as a disappearance of measurable tumor mass (<2 mm^3) at some point within the study. Cures were defined as CRs without tumor regrowth within the study time frame. As a general measure of gross toxicity, changes in body weights were determined on the same schedule as tumor volume measurements.

T1 sequence (P15328 25-234): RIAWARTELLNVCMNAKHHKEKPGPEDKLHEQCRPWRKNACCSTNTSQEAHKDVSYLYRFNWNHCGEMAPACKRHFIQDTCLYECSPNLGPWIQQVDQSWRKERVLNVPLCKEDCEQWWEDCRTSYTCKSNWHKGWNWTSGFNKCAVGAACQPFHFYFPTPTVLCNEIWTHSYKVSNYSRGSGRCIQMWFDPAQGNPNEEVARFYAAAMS
T2 sequence (P15328 25-234): as above

Take `Nc1nc2ncc(CNc3ccc(C(=O)N[C@@H](CNC(=O)CCC(C(=O)O)N4CCN(CC(=O)O)CCN(CC(=O)O)CCN(CC(=O)O)CC4)C(=O)O)cc3)nc2c(=O)[nH]1` (stereo partly shown) [Compound 5]: in data set [1] (100 nmol/kg), the T/Kid was 0.22 +/− 0.08 and 0.16 +/− 0.01 and 0.25 +/− 0.07; the T/spl was 25.3 +/− 11.4 and 14.6 +/− 3.0 and 24.4 +/− 8.8; the “T^2/kid” value was 1.6 +/− 1.0 and 1.1 +/− 0.3 and 2.0 +/− 1.2. Besides, in data set [2], the T/Kid is 0.09 +/− 0.02, the T/Liv is given as 3.5 +/− 1.9 and the T/spl is on record as 19.9 +/− 10.9.
Turning to `Nc1nc2ncc(CNc3ccc(C(=O)N[C@@H](CNC(=O)CN4CCN(CC(=O)O)CCN(CC(=O)O)CCN(CC(=O)O)CC4)C(=O)O)cc3)nc2c(=O)[nH]1` [Compound 3], in data set [1] (100 nmol/kg), the T/Kid is listed as 0.30 +/− 0.04, the T/Liv is on record as 0.93 +/− 0.15, the T/spl is 10.6 +/− 1.8 and the “T^2/kid” value was 1.6 +/− 0.4. Besides, in data set [2], the T/Kid was 0.04 +/− 0.01, the T/Liv was 0.5 +/− 0.3 and the T/spl was 6.8 +/− 2.9.
As for `Nc1nc2ncc(CNc3ccc(C(=O)N[C@@H](CCCCNC(=O)COc4ccc(C[C@H](NC(=O)CNC(=O)CN5CCN(CC(=O)O)CCN(CC(=O)O)CCN(CC(=O)O)CC5)C(=O)O)cc4)C(=O)O)cc3)nc2c(=O)[nH]1` [Compound 37, 2,2′,2″-(10-(2-((2-(((S)-2-(4-(2-(((S)-5-(4-(((2-amino-4-oxo-3,4-dihydropteridin-6-yl)methyl)amino)benzamido)-5-carboxypentyl)amino)-2-oxoethoxy)phenyl)-1-carboxyethyl)amino)-2-oxoethyl)amino)-2-oxoethyl)-1,4,7,10-tetraazacyclododecane-1,4,7-triyl)triacetic acid], the “Relative Binding Affinity” value in data set [3] came to 1.53. Besides, in data set [1] (300 nmol/kg), the T/Kid is recorded as 0.46 +/− 0.14, the T/Liv is on record as 13.2 +/− 4.5, the T/spl is 61.9 +/− 14.4 and the “T^2/kid” value is 1.51 +/− 0.57. Also, in data set [4], the T/Kid is given as 0.15 +/− 0.03, the T/Liv was 1.37 +/− 0.37 and the T/spl is listed as 0.49 +/− 0.17.
Regarding `O=C(O)CN1CCN(CC(=O)O)CCN([C@@H](CCC(=O)NC[C@H](NC(=O)c2ccc(NCc3ccc4ccccc4c3)cc2)C(=O)O)C(=O)O)CCN(CC(=O)O)CC1` [(non- targeted control), reference compound], in data set [3], the “Relative Binding Affinity” value is “Non- binder”. For the same compound, the “Direct Binding (Kd, nM)” value in data set [5] is “Non- binder”.
What is called Kd is the free concentration of one partner at which half of the binding sites on the other are occupied at equilibrium, for simple one-to-one binding. `Nc1nc2ncc(CNc3ccc(C(=O)N[C@@H](CCCCNC(=O)COc4ccc(C[C@H](NC(=O)CNC(=O)CN5CCN(CC(=O)O)CCN(CC(=O)O)CCN(CC(=O)O)CC5)C(=O)O)cc4)C(=O)O)cc3)nc2c(=O)[nH]1` [[^177Lu]-Compound 37, metal not drawn]: in data set [6], the “average weight of mice (tolerability)” value was “did not lose any significant weight”. For the same compound, in data set [7], the “complete response (CR)” value is recorded as “one” and the “partial responses (PRs)” value was “four”. In data set [5], the Kd came to 8.99 nM.
Take `Nc1nc2ncc(CNc3ccc(C(=O)N[C@@H](CCCCNC(=O)C[C@H](NC(=O)[C@H](Cc4ccc5ccccc5c4)NC(=O)CNC(=O)CN4CCN(CC(=O)O)CCN(CC(=O)O)CCN(CC(=O)O)CC4)C(=O)O)C(=O)O)cc3)nc2c(=O)[nH]1` [Compound 34, 2,2′,2″-(10-((3S,11S,14S)-1-(4-(((2-amino-4-oxo-3,4-dihydropteridin-6-yl)methyl)amino)phenyl)-3,11-dicarboxy-14-(naphthalen-2-ylmethyl)-1,9,13,16,19-pentaoxo-2,8,12,15,18-pentaazaicosan-20-yl)-1,4,7,10-tetraazacyclododecane-1,4,7-triyl)triacetic acid]: the “Relative Binding Affinity” value in data set [3] came to 2.21. For the same compound, in data set [1] (300 nmol/kg), the T/Kid was 0.55 +/− 0.1, the T/Liv is on record as 25.3 +/− 6.6, the T/spl was 98.3 +/− 25.1 and the “T^2/kid” value is listed as 1.7 +/− 0.9. For the same compound, in data set [1] (600 nmol/kg), the T/Kid is 0.80 +/− 0.18, the T/Liv is 29.1 +/− 5.4, the T/spl was 92.8 +/− 5.4 and the “T^2/kid” value is listed as 1.97 +/− 0.7. In data set [4], the T/Kid was 0.29 +/− 0.05, the T/Liv was 1.53 +/− 0.57 and the T/spl is reported as 0.49 +/− 0.07.
As to `Nc1nc2ncc(CNc3ccc(C(=O)N[C@@H](CCCCNC(=O)[C@H](Cc4ccc5ccccc5c4)NC(=O)[C@H]4CC[C@H](CNC(=O)CN5CCN(CC(=O)O)CCN(CC(=O)O)CCN(CC(=O)O)CC5)CC4)C(=O)O)cc3)nc2c(=O)[nH]1` [Compound 23], in data set [1] (300 nmol/kg), the T/Kid is given as 0.37 +/− 0.11, the T/Liv is 25.8 +/− 2.4, the T/spl was 108 +/− 12.7 and the “T^2/kid” value is 1.47 +/− 0.66. Further, in data set [2], the T/Kid was 0.08 +/− 0.03, the T/Liv was 1.8 +/− 0.7 and the T/spl is listed as 10.1 +/− 4.7.
